Several values for one entry are separate records, joined by “and”; a condition that tells them apart may be missing. Identical values can stand only once.
Molecular target: BiP NBD (Homo sapiens, UniProt P11021)
Assay: Global kinetic fit (MCMC) of four NMR data sets (E1+E2, E1 only, E2 only, no recycling): functional cycle kinetic parameters
Format: biochemical
Set-up: His6 (N, cleaved yes); made in house; host or cells: E. coli BL21-(DE3)-Lemo, pET28a vector
Conditions: for Kd: standard buffer
Description: It comprises 5 different states that are connected by […] reaction equations of first and second order. We consider ATP hydrolysis an irreversible reaction without backreaction. The other pathways are reversible dissociation/association reactions, arbitrarily labeled 1–5. The microscopic equations (elementary reactions) for these 11 reactions are given by:1 NBD^ATPkcat→NBD^ADP⋅Pi 2 NBD^ATPkoff1⇌kon1NBD^apo+ATP 3 NBD^ADPkoff2⇌kon2NBD^apo+ADP 4 NBD^Pikoff3⇌kon3NBD^apo+Pi 5 NBD^ADP⋅Pikoff4⇌kon4NBD^ADP+Pi 6 NBD^ADP⋅Pikoff5⇌kon5NBD^Pi+ADP With the forward and backward kinetic rate constants connected by thermodynamic equilibrium dissociation constants given by7 koffi/koni=KDifori=1,…,5 For each of the 5 states, a differential equation describing the conservation of mass can be derived:8 d/dtNBD^apo=+koff1NBD^ATP+koff2NBD^ADP+koff3NBD^Pi−kon1NBD^apoATP−kon2NBD^apoADP−kon3NBD^apoPi 9 d/dt[NBD^ATP]=+kon1NBD^apoATP−koff1NBD^ATP−kcatNBD^ATP 10 d/dtNBD^ADP⋅Pi=+kcatNBD^ATP+kon4NBD^ADPPi+kon5NBD^PiADP−koff4NBD^ADP⋅Pi−koff5NBD^ADP⋅Pi 11 d/dtNBD^ADP=+koff4NBD^ADP⋅Pi+kon2NBD^apoADP−koff2NBD^ADP−kon4NBD^ADPPi 12 d/dtNBD^Pi=+koff5NBD^ADP⋅Pi+kon3NBD^apoPi−koff3NBD^Pi−kon5NBD^PiADP Furthermore, we have the total amount13 NBD^apo+NBD^ATP+NBD^ADP+NBD^ADP⋅Pi+NBD^Pi=NBD0 These equations can be used for numerical fitting of steady-state and non-steady-state experimental data.
The experimental data of the BiP NBD in-cyclo experiments were fitted using standard reaction kinetics. Free variables were the kon and koff rates for the five reversible reaction and the catalytic rate constant (kcat) for the irreversible ATP hydrolysis step (See theory section). The initial values for kcat , koff2 , koff4 and koff5 were set to the value determined experimentally with in-cyclo experiment. The initial value for koff3 was taken from the EXSY experiment and the initial range for koff1 and KD1 were taken from the literature. […] The prior distributions were defined based on the average state occupancy resolved from the in-cyclo experiment: tNBD·ADP, tNBD, tNBD·ADP·Pi and tNBD·Pi. Numerical integration of the corresponding differential equations for the reaction scheme (described in Fig. 2a) was performed using a custom Python module (Kinetic).
To fully determine all kinetic parameters, the data fitting procedure was conducted as a global fit of four independent experimental datasets: (i) the in-cyclo experiment with ATP regeneration and phosphate removal, (ii) ATP regeneration only, (iii) single batch experiments starting from pure ATP with the phosphate removal system, and (iv) single batch experiments starting from pure ATP.
Fitting of the functional cycle kinetic parameters. a-d, Global fit of the experimental data presented in the manuscript E1 +E2 (a), E1 (b), E2 (c), no recycling system (d). Data points are shown as circles NBD·ADP (blue), NBD·ADP·PI (dark blue) and NBD·ATP (red) (left) and pyruvate (grey), glucose-1-P (lavender), ATP (red) and ADP (blue) (right). The fit of the data is shown as lines in the same color as the data points. Data points and standard deviation for three independent experiments. e, Numerical stability of the global fitting of the experimental data.

[1] = Supplementary Fig 10a, time 5 min
[2] = Supplementary Fig 10a, time 11 min
[3] = Supplementary Fig 10a, time 17 min
[4] = Supplementary Fig 10a, time 23 min
[5] = Supplementary Fig 10a, time 29 min
[6] = Supplementary Fig 10a, time 35 min
[7] = Supplementary Fig 10a, time 41 min
[8] = Supplementary Fig 10a, time 47 min
[9] = Supplementary Fig 10a, time 53 min
[10] = Supplementary Fig 10a, time 59 min
[11] = Supplementary Fig 10a, time 65 min
[12] = Supplementary Fig 10a, time 71 min
[13] = Supplementary Fig 10b, time 10 min
[14] = Supplementary Fig 10b, time 16 min
[15] = Supplementary Fig 10b, time 22 min
[16] = Supplementary Fig 10b, time 28 min
[17] = Supplementary Fig 10b, time 34 min
[18] = Supplementary Fig 10b, time 40 min
[19] = Supplementary Fig 10b, time 46 min
[20] = Supplementary Fig 10b, time 52 min
[21] = Supplementary Fig 10b, time 58 min
[22] = Supplementary Fig 10b, time 64 min
[23] = Supplementary Fig 10b, time 70 min
[24] = Supplementary Fig 10c, time 5 min
[25] = Supplementary Fig 10c, time 11 min
[26] = Supplementary Fig 10c, time 17 min
[27] = Supplementary Fig 10c, time 23 min
[28] = Supplementary Fig 10c, time 29 min
[29] = Supplementary Fig 10c, time 35 min
[30] = Supplementary Fig 10c, time 41 min
[31] = Supplementary Fig 10c, time 47 min
[32] = Supplementary Fig 10c, time 53 min
[33] = Supplementary Fig 10d, time 5 min
[34] = Supplementary Fig 10d, time 11 min
[35] = Supplementary Fig 10d, time 17 min
[36] = Supplementary Fig 10d, time 23 min
[37] = Supplementary Fig 10d, time 29 min
[38] = Supplementary Fig 10d, time 35 min
[39] = Supplementary Fig 10d, time 41 min
[40] = Supplementary Fig 10d, time 47 min
[41] = Supplementary Fig 10d, time 53 min
[42] = reactions 1-3 (koff1, koff2, koff3): release from binary complex, T = 37 °C
[43] = reactions 1-3: binding to apo NBD, T = 37 °C
[44] = reactions 1-3: ligand leaving the binary complex to give apo NBD, T = 37 °C

Sequence of BiP NBD (P11021 19-406): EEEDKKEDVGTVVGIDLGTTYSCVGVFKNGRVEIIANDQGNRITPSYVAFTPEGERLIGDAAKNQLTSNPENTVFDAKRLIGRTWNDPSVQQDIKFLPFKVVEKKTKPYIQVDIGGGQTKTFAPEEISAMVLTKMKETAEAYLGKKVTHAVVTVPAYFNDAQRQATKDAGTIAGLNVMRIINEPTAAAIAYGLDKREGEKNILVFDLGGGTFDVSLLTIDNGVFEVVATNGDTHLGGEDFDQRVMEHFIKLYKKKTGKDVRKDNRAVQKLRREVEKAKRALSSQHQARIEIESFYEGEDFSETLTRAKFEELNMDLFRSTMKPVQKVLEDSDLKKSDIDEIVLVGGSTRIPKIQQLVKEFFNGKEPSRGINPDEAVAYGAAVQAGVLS

Structure (SMILES): O=P(O)(O)O [Pi]
- species [1]: 25 µM
- species [2]: 25 µM
- species [3]: 25 µM
- species [4]: 25 µM
- species [5]: 25 µM
- species [6]: 25 µM
- species [7]: 25 µM
- species [8]: 25 µM
- species [9]: 25 µM
- species [10]: 25 µM
- species [11]: 25 µM
- species [12]: 25 µM
- species [13]: 1011 µM
- species [14]: 1602 µM
- species [15]: 2255 µM
- species [16]: 2820 µM
- species [17]: 3384 µM
- species [18]: 3735 µM
- species [19]: 4207 µM
- species [20]: 4544 µM
- species [21]: 4962 µM
- species [22]: 5335 µM
- species [23]: 5727 µM
- species [24]: 25 µM
- species [25]: 25 µM
- species [26]: 25 µM
- species [27]: 25 µM
- species [28]: 25 µM
- species [29]: 25 µM
- species [30]: 25 µM
- species [31]: 25 µM
- species [32]: 25 µM
- species [33]: 936 µM
- species [34]: 1380 µM
- species [35]: 1670 µM
- species [36]: 1894 µM
- species [37]: 2069 µM
- species [38]: 2212 µM
- species [39]: 2337 µM
- species [40]: 2452 µM
- species [41]: 2552 µM
- rate of phosphate release relative to ADP release from the ADP·Pi-bound state (koff4 versus koff5): 2.5 times
- koff [42]: 1.3 ± 0.2 s⁻¹
- kon [43]: 5000 ± 1000 M⁻¹ s⁻¹
- Kd [44]: 260 ± 20 µM
- koff (reactions 4, 5 (koff4, koff5): release from NBD·ADP·Pi, T = 37 °C): 0.047 ± 0.01 s⁻¹
- kon (reactions 4, 5: Pi binding to NBD·ADP, ADP binding to NBD·Pi, T = 37 °C): 200 ± 60 M⁻¹ s⁻¹
- Kd (reactions 4, 5: one ligand leaving NBD·ADP·Pi, the other stays bound, T = 37 °C): 235 ± 50 µM

Structure (SMILES): Nc1ncnc2c1ncn2[C@@H]1O[C@H](COP(=O)(O)OP(=O)(O)OP(=O)(O)O)[C@@H](O)[C@H]1O [ATP]
- kcat (NBD·ATP → NBD·ADP·Pi, T = 37 °C): 0.065 ± 0.013 s⁻¹ and 0.065 ± 0.01 s⁻¹
- species [1]: 4931 µM
- species [2]: 4934 µM
- species [3]: 4884 µM
- species [4]: 4899 µM
- species [5]: 4939 µM
- species [6]: 4943 µM
- species [7]: 4963 µM
- species [8]: 4978 µM
- species [9]: 5001 µM
- species [10]: 5024 µM
- species [11]: 5048 µM
- species [12]: 5079 µM
- species [13]: 5016 µM
- species [14]: 4951 µM
- species [15]: 4989 µM
- species [16]: 4949 µM
- species [17]: 5005 µM
- species [18]: 4923 µM
- species [19]: 4996 µM
- species [20]: 4916 µM
- species [21]: 4954 µM
- species [22]: 4989 µM
- species [23]: 4937 µM
- species [24]: 4151 µM
- species [25]: 3560 µM
- species [26]: 3077 µM
- species [27]: 2698 µM
- species [28]: 1801 µM
- species [29]: 1548 µM
- species [30]: 1183 µM
- species [31]: 1030 µM
- species [32]: 902 µM
- kcat fitted average (Supplementary Fig 11b, fitted): 0.065 s⁻¹
- species [33]: 4064 µM
- species [34]: 3620 µM
- species [35]: 3330 µM
- species [36]: 3106 µM
- species [37]: 2931 µM
- species [38]: 2788 µM
- species [39]: 2663 µM
- species [40]: 2548 µM
- species [41]: 2448 µM
- factor by which ATP unbinding is rarer than ATP hydrolysis (koff1 versus kcat): 5 times
- koff [42]: 0.012 ± 0.003 s⁻¹
- kon [43]: 32000 ± 9000 M⁻¹ s⁻¹
- Kd [44]: 0.38 ± 0.12 µM

Reference: PMC12126525, “Mechanism of ATP hydrolysis in the Hsp70 BiP nucleotide-binding domain” (Nature Communications, 2025)
